Measured values published in BindingDB's records for doi:10.1016/j.bmcl.2009.06.075 (Pfizer, 2009).

Assay: Antagonist activity at human P2Y12 receptor assessed as inhibition of ADP-induced platelet-rich plasma aggregation by turbidimetric method

Structure (SMILES) | IC50 [µM]
CCOC(=O)N1CCN(C(=O)[C@H](CCC(=O)O)NC(=O)c2cc(N(CC)CC)cc(-c3ccccc3)n2)CC1 [(S)-4-(4-(diethylamino)-6-phenylpicolinamido)-5-(4-(ethoxycarbonyl)piperazin-1-yl)-5-oxopentanoic acid] | > 100
CCCCCCOC(=O)N1CCN(C(=O)[C@H](CCC(=O)O)NC(=O)c2cc(N(C)CCS(C)(=O)=O)cc(-c3ccccc3)n2)CC1 [(S)-4-(4-(methyl(2-(methylsulfonyl)ethyl)amino)-6-phenylpicolinamido)-5-oxo-5-(4-(hexyloxycarbonyl)piperazin-1-yl)pentanoic acid] | 17.7
CCCCCOC(=O)N1CCN(C(=O)[C@H](CCC(=O)O)NC(=O)c2cc(N(C)CCS(C)(=O)=O)cc(-c3ccccc3)n2)CC1 [(S)-4-(4-(methyl(2-(methylsulfonyl)ethyl)amino)-6-phenylpicolinamido)-5-oxo-5-(4-(pentyloxycarbonyl)piperazin-1-yl)pentanoic acid] | 4.1
O=C(O)CC[C@H](NC(=O)c1cc(N2CCC(O)CC2)cc(-c2ccccc2)n1)C(=O)N1CCN(C(=O)OCCC2CCCC2)CC1 [(S)-5-(4-((2-cyclopentylethoxy)carbonyl)piperazin-1-yl)-4-(4-(4-hydroxypiperidin-1-yl)-6-phenylpicolinamido)-5-oxopentanoic acid] | 57.8
CN(CCS(C)(=O)=O)c1cc(C(=O)N[C@@H](CCC(=O)O)C(=O)N2CCN(C(=O)OCCC3CCCC3)CC2)nc(-c2ccccc2)c1 [(S)-5-(4-((2-cyclopentylethoxy)carbonyl)piperazin-1-yl)-4-(4-(methyl(2-(methylsulfonyl)ethyl)amino)-6-phenylpicolinamido)-5-oxopentanoic acid] | 17.5
C=CCOC(=O)N1CCN(C(=O)[C@H](CCC(=O)O)NC(=O)c2cc(OCCO)cc(-c3ccccc3)n2)CC1 [(S)-5-(4-(allyloxycarbonyl)piperazin-1-yl)-4-(4-(2-hydroxyethoxy)-6-phenylpicolinamido)-5-oxopentanoic acid] | 11.1
C=CCOC(=O)N1CCN(C(=O)[C@H](CCC(=O)O)NC(=O)c2cc(OCCOC)cc(-c3ccccc3)n2)CC1 [(S)-5-(4-(allyloxycarbonyl)piperazin-1-yl)-4-(4-(2-methoxyethoxy)-6-phenylpicolinamido)-5-oxopentanoic acid] | 13.3
C=CCOC(=O)N1CCN(C(=O)[C@H](CCC(=O)O)NC(=O)c2cc(OCCCC)cc(-c3ccccc3)n2)CC1 [(S)-5-(4-(allyloxycarbonyl)piperazin-1-yl)-4-(4-butoxy-6-phenylpicolinamido)-5-oxopentanoic acid] | 61.7
C=CCOC(=O)N1CCN(C(=O)[C@H](CCC(=O)O)NC(=O)c2cc(OC3CCNCC3)cc(-c3ccccc3)n2)CC1 [(S)-5-(4-(allyloxycarbonyl)piperazin-1-yl)-5-oxo-4-(6-phenyl-4-(piperidin-4-yloxy)picolinamido)pentanoic acid] | 9.4
CCCCOC(=O)N1CCN(C(=O)[C@H](CCC(=O)O)NC(=O)c2cc(OCCO)cc(-c3ccccc3)n2)CC1 [(S)-5-(4-(butoxycarbonyl)piperazin-1-yl)-4-(4-(2-hydroxyethoxy)-6-phenylpicolinamido)-5-oxopentanoic acid] | 7.8
CCCCOC(=O)N1CCN(C(=O)[C@H](CCC(=O)O)NC(=O)c2cc(OC3CCNCC3)cc(-c3ccccc3)n2)CC1 [(S)-5-(4-(butoxycarbonyl)piperazin-1-yl)-5-oxo-4-(6-phenyl-4-(piperidin-4-yloxy)picolinamido)pentanoic acid] | 1.1
CCCCOC(=O)N1CCN(C(=O)[C@H](CCC(=O)O)NC(=O)c2cccc(-c3ccccc3)n2)CC1 [(S)-5-(4-(butoxycarbonyl)piperazin-1-yl)-5-oxo-4-(6-phenylpicolinamido)pentanoic acid] | 28
CCOC(=O)N1CCN(C(=O)[C@H](CCC(=O)O)NC(=O)c2cc(NCCO)cc(-c3ccccc3)n2)CC1 [(S)-5-(4-(ethoxycarbonyl)piperazin-1-yl)-4-(4-(2-hydroxyethylamino)-6-phenylpicolinamido)-5-oxopentanoic acid] | 8.1
CCOC(=O)N1CCN(C(=O)[C@H](CCC(=O)O)NC(=O)c2cc(OCCOC)cc(-c3ccccc3)n2)CC1 [(S)-5-(4-(ethoxycarbonyl)piperazin-1-yl)-4-(4-(2-methoxyethoxy)-6-phenylpicolinamido)-5-oxopentanoic acid] | 5.8
CCOC(=O)N1CCN(C(=O)[C@H](CCC(=O)O)NC(=O)c2cc(NCCOC)cc(-c3ccccc3)n2)CC1 [(S)-5-(4-(ethoxycarbonyl)piperazin-1-yl)-4-(4-(2-methoxyethylamino)-6-phenylpicolinamido)-5-oxopentanoic acid] | 14
CCOC(=O)N1CCN(C(=O)[C@H](CCC(=O)O)NC(=O)c2cc(N(C)CCS(C)(=O)=O)cc(-c3ccccc3)n2)CC1 [(S)-5-(4-(ethoxycarbonyl)piperazin-1-yl)-4-(4-(methyl(2-(methylsulfonyl)ethyl)amino)-6-phenylpicolinamido)-5-oxopentanoic acid] | 7.6
CCOC(=O)N1CCN(C(=O)[C@H](CCC(=O)O)NC(=O)c2cc(OC)cc(-c3ccccc3)n2)CC1 [(S)-5-(4-(ethoxycarbonyl)piperazin-1-yl)-4-(4-methoxy-6-phenylpicolinamido)-5-oxopentanoic acid] | 39
CCOC(=O)N1CCN(C(=O)[C@H](CCC(=O)O)NC(=O)c2cc(OCC3CCNCC3)cc(-c3ccccc3)n2)CC1 [(S)-5-(4-(ethoxycarbonyl)piperazin-1-yl)-5-oxo-4-(6-phenyl-4-(piperidin-4-ylmethoxy)picolinamido)pentanoic acid] | 4
CCOC(=O)N1CCN(C(=O)[C@H](CCC(=O)O)NC(=O)c2cc(NCC3CCNCC3)cc(-c3ccccc3)n2)CC1 [(S)-5-(4-(ethoxycarbonyl)piperazin-1-yl)-5-oxo-4-(6-phenyl-4-(piperidin-4-ylmethylamino)picolinamido)pentanoic acid] | 8.5
CCOC(=O)N1CCN(C(=O)[C@H](CCC(=O)O)NC(=O)c2cc(OC3CCNCC3)cc(-c3ccccc3)n2)CC1 [(S)-5-(4-(ethoxycarbonyl)piperazin-1-yl)-5-oxo-4-(6-phenyl-4-(piperidin-4-yloxy)picolinamido)pentanoic acid] | 1.9
CCCNc1cc(C(=O)N[C@@H](CCC(=O)O)C(=O)N2CCN(C(=O)OCC)CC2)nc(-c2ccccc2)c1 [(S)-5-(4-(ethoxycarbonyl)piperazin-1-yl)-5-oxo-4-(6-phenyl-4-(propylamino)picolinamido)pentanoic acid] | 28
CCOC(=O)N1CCN(C(=O)[C@H](CCC(=O)O)NC(=O)c2cc(NC3CCOCC3)cc(-c3ccccc3)n2)CC1 [(S)-5-(4-(ethoxycarbonyl)piperazin-1-yl)-5-oxo-4-(6-phenyl-4-(tetrahydro-2H-pyran-4-ylamino)picolinamido)pentanoic acid] | 21
CCCCCCCOC(=O)N1CCN(C(=O)[C@H](CCC(=O)O)NC(=O)c2cccc(-c3ccccc3)n2)CC1 [(S)-5-(4-(heptyloxycarbonyl)piperazin-1-yl)-5-oxo-4-(6-phenylpicolinamido)pentanoic acid] | 56
CCCCCCOC(=O)N1CCN(C(=O)[C@H](CCC(=O)O)NC(=O)c2cc(N3CCC(COC)CC3)cc(-c3ccccc3)n2)CC1 [(S)-5-(4-(hexyloxycarbonyl)piperazin-1-yl)-4-(4-(4-(methoxymethyl)piperidin-1-yl)-6-phenylpicolinamido)-5-oxopentanoic acid] | 7.6
CCCCCCOC(=O)N1CCN(C(=O)[C@H](CCC(=O)O)NC(=O)c2cc(N3CCC(O)CC3)cc(-c3ccccc3)n2)CC1 [(S)-5-(4-(hexyloxycarbonyl)piperazin-1-yl)-4-(4-(4-hydroxypiperidin-1-yl)-6-phenylpicolinamido)-5-oxopentanoic acid] | 6.4
CCCCCCOC(=O)N1CCN(C(=O)[C@H](CCC(=O)O)NC(=O)c2cccc(-c3ccccc3)n2)CC1 [(S)-5-(4-(hexyloxycarbonyl)piperazin-1-yl)-5-oxo-4-(6-phenylpicolinamido)pentanoic acid] | 19
COCCOc1cc(C(=O)N[C@@H](CCC(=O)O)C(=O)N2CCN(C(=O)OC(C)C)CC2)nc(-c2ccccc2)c1 [(S)-5-(4-(isopropoxycarbonyl)piperazin-1-yl)-4-(4-(2-methoxyethoxy)-6-phenylpicolinamido)-5-oxopentanoic acid] | 20.1
COC(=O)N1CCN(C(=O)[C@H](CCC(=O)O)NC(=O)c2cccc(-c3ccccc3)n2)CC1 [(S)-5-(4-(methoxycarbonyl)piperazin-1-yl)-5-oxo-4-(6-phenylpicolinamido)pentanoic acid] | > 100
CCCCCOC(=O)N1CCN(C(=O)[C@H](CCC(=O)O)NC(=O)c2cccc(-c3ccccc3)n2)CC1 [(S)-5-oxo-5-(4-(pentyloxycarbonyl)piperazin-1-yl)-4-(6-phenylpicolinamido)pentanoic acid] | 15
